Measurements reported in paper PMC13083723 (Patterns, 2026).
Residues, ends and D or L forms follow the SMILES beside them.

Each compound was assayed on Vero-E6 cells (assay: cells). Conditions: not given.
Type: cell-based
`C[C@@H](O)[C@H](N)C(=O)N1CCC[C@H]1C(=O)N1CCC[C@H]1C(=O)N[C@H](C(N)=O)[C@@H](C)O` [SPE_K02206208] (H-TPPT-NH2) gave a PL_Result of -5.35.

Same assay, conditions: Chlorocebus sabaeus, Vero C1008, 24 h, read-out: PL_Result
In the case of `Cc1csc(-c2nnc(Nc3ccc(Oc4ncccc4-c4ccnc(N)n4)cc3)c3ccccc23)c1` [SPE_K21728777], the activation at 10 µM was -11.5%. Compound `C[C@]12C=CC(=O)C=C1CC[C@@H]1[C@@H]2CC[C@]2(C)OC(=O)CC[C@@H]12` [SPE_K69636617] has an activation at 10 µM of -2.05%. For `CCCCCCCCCCCCCCCCCCCCCCCCCCCCO` [SPE_K03083257], the activation at 10 µM was -15.2%. `CC(C)CN(C[C@@H](O)[C@H](Cc1ccccc1)NC(=O)O[C@H]1CCOC1)S(=O)(=O)c1ccc(N)cc1` [SPE_K47827687] gave an activation at 10 µM of 0.458%. `Cc1c(Cl)cccc1S(=O)(=O)Nc1nc(NCCc2ccccc2)nc2c1CN(Cc1ccccc1)CC2` [SPE_K35772771] was tested, and the activation at 10 µM was -25%. With `N#CCNC(=O)c1ccc(-c2ccnc(Nc3ccc(N4CCOCC4)cc3)n2)cc1` [SPE_K87737963] the activation at 10 µM was 7.32%. Work on `COc1ccccc1N1CCN(CCCCNC(=O)c2ccc3ccccc3c2)CC1` [SPE_K17378184] yielded an activation at 10 µM of 28.8%. With `Nc1ccn([C@H]2C[C@H](O)[C@@H](CO)O2)c(=O)n1` [SPE_K91822704] the activation at 10 µM was 0.471%. `COc1[nH]c2ccc(F)cc2c1C(=O)OCC1CCN(CCNS(C)(=O)=O)CC1` [SPE_K62594868] was tested, and the activation at 10 µM was -2.59%. `CC(C)(Sc1cc(C(C)(C)C)c(O)c(C(C)(C)C)c1)Sc1cc(C(C)(C)C)c(O)c(C(C)(C)C)c1` [SPE_K72029282] gave an activation at 10 µM of -0.8%. `Cc1ccc(-n2sc(=O)n(Cc3ccc(F)cc3)c2=O)cc1` [SPE_K08893438] was tested, and the activation at 10 µM was 8.86%. `C=CCN1C[C@H](C)N([C@H](c2ccc(C(=O)N(CC)CC)cc2)c2cccc(OC)c2)C[C@H]1C` [SPE_K29546239] gave an activation at 10 µM of 1.37%. `CC(C)CCCC(C)[C@H]1CCC2C3CC=C4C[C@@H](O)CC[C@]4(C)C3CC[C@@]21C` (some centres unmarked) [SPE_A42883684] was tested, and the activation at 10 µM was -4.75%. With `CC(=O)[C@@]1(O)CC[C@H]2[C@@H]3C[C@H](C)C4=CC(=O)CC[C@]4(C)[C@H]3CC[C@@]21C` [SPE_K99615199] the activation at 10 µM was -9.68%. `CCc1cc2c(cc1N1CCC(N3CCOCC3)CC1)C(C)(C)c1[nH]c3cc(C#N)ccc3c1C2=O` [SPE_K11267252] gave an activation at 10 µM of 0.894%. `N#Cc1c(Oc2ccc(F)c(NC(=O)Cc3cccc(C(F)(F)F)c3)c2)ccc2nc(NC(=O)C3CC3)sc12` [SPE_K31866293] showed an activation at 10 µM of 1.45%. Work on `COc1ccc(/C=C/C(=O)O)cc1` [SPE_K26273521] yielded an activation at 10 µM of -9.12%. With `CC[C@@H](CO)NC(=O)[C@@H]1C=C2c3cccc4[nH]cc(c34)C[C@H]2N(C)C1` [SPE_K34685430] the activation at 10 µM was -5.04%. `Oc1cc(Cl)ccc1Oc1ccc(Cl)cc1Cl` [SPE_K41731458] showed an activation at 10 µM of 0.158%. With `CCCCC/C=C\C/C=C\CCCCCCCC(=O)NCCCC(=O)O` [SPE_K46254452] the activation at 10 µM was 0.426%. With `CCn1ccnc1CC1COc2ccccc2O1` (centres unmarked) [SPE_A10903566] the activation at 10 µM was 2.21%. In the case of `COc1nc(C)cnc1NS(=O)(=O)c1cccnc1-c1ccc(-c2nnco2)cc1` [SPE_K31553034], the activation at 10 µM was -4.16%. `O=C(O)C1=CCCN(CCON=C(c2ccccc2)c2ccccc2)C1` [SPE_K42221274] gave an activation at 10 µM of 0.196%. `O=C(Nc1ccc(N2CCC(C(=O)N3CCOCC3)CC2)cc1)c1cnc(Oc2ccccc2)nc1` [SPE_K57708067] gave an activation at 10 µM of -4.61%. For `c1ccc(C2CC2)c(OCC2=NCCN2)c1` [SPE_K54142781], the activation at 10 µM was -12.4%. Compound `CC1CCN(C(c2ccc(F)cc2)c2ccc(C(C)C(=O)O)cc2-c2ccc(C(F)(F)F)cc2)CC1` (centres unmarked) [SPE_A66521565] has an activation at 10 µM of -6.16%. In the case of `COc1ccc(-c2cc(=O)c3c(OC)c(OC)c(OC)c(OC)c3o2)cc1OC` [SPE_K06753942], the activation at 10 µM was 17.9%. `CC(C)C(=O)OC[C@H]1O[C@@H](n2ccc(N)nc2=O)[C@](C)(F)[C@@H]1OC(=O)C(C)C` [SPE_K69726595] gave an activation at 10 µM of -9.49%. Work on `COc1nccnc1NS(=O)(=O)c1ccc(N)cc1` [SPE_K17205817] yielded an activation at 10 µM of -0.746%. Work on `COc1cc2c(cc1C(F)(F)F)N(C(=O)Nc1cc(F)cc(-c3cccnc3)c1)CC2` [SPE_K15424032] yielded an activation at 10 µM of 13.1%. For `CCc1ccc2c(-c3cccc(Cl)c3)nc(=O)n(CC)c2n1` [SPE_K12932420], the activation at 10 µM was 0.000931%. Compound `Nc1ncc(Cc2ccc(Br)cc2)s1` [SPE_K03808106] has an activation at 10 µM of -0.249%. Compound `O=C(O)Cc1ccc(CCNS(=O)(=O)c2ccc(Cl)cc2)cc1` [SPE_K26813177] has an activation at 10 µM of -0.423%. Work on `C[C@@]12C[C@@]3(O)O[C@@H](O1)[C@]1(COC(=O)c4ccccc4)[C@H]3C[C@@]12O[C@@H]1O[C@H](CO)[C@@H](O)[C@H](O)[C@H]1O` [SPE_K83631119] yielded an activation at 10 µM of 4.42%. Work on `CCC[C@H](N[C@@H](C)C(=O)N1[C@H](C(=O)O)C[C@@H]2CCCC[C@@H]21)C(=O)OCC` [SPE_K92731339] yielded an activation at 10 µM of 4.37%. In the case of `O=C(O)COCCN1CCN(C(c2ccccc2)c2ccc(Cl)cc2)CC1` (centres unmarked) [SPE_A42571354], the activation at 10 µM was -3.1%. `CC(C)(O)CC(=O)NCCn1ccc2ncnc(Nc3ccc(Oc4cccc(C(F)(F)F)c4)c(Cl)c3)c21` [SPE_K80343549] showed an activation at 10 µM of -7.02%. `CCOC(=O)c1cc(C#N)c(N2CCC(C(=O)NS(=O)(=O)Cc3ccccc3)CC2)nc1C` [SPE_K77060810] was tested, and the activation at 10 µM was -0.985%. With `CCCCc1nc(Cl)c(C(=O)O)n1Cc1ccc(-c2ccccc2-c2nnn[nH]2)cc1` [SPE_K23533833] the activation at 10 µM was 4.67%. `NC(=O)C1=CN([C@@H]2O[C@H](COP(=O)(O)OP(=O)(O)OC[C@H]3O[C@@H](n4cnc5c(N)ncnc54)[C@H](OP(=O)(O)O)[C@@H]3O)[C@@H](O)[C@H]2O)C=CC1` [SPE_M06409173] was tested, and the activation at 10 µM was -2.48%. Compound `CCOc1cc(N2CCC(O)CC2)ccc1Nc1ncc2c(n1)N(C)c1ccccc1C(=O)N2C` [SPE_K50387473] has an activation at 10 µM of -6.3%. Work on `CCCCc1nn(-c2ccccc2C(F)(F)F)c(=O)n1Cc1ccc(-c2ccccc2S(=O)(=O)NC(=O)c2sccc2C)cc1` [SPE_K39733634] yielded an activation at 10 µM of -1.37%. `COc1cccc(-c2cc(NCc3ccc4c(c3)OCO4)nc(N)n2)c1` [SPE_K42624714] showed an activation at 10 µM of -1.5%. In the case of `O=c1c(-c2ccc(O)cc2)coc2cc(O)cc(O)c12` [SPE_K43797669], the activation at 10 µM was 24.8%. `COc1cc(/C=C/C(N)=O)cc(OC)c1OC` [SPE_K24507548] gave an activation at 10 µM of -1.45%. `CNCC(=O)O` [SPE_K51263939] gave an activation at 10 µM of -0.786%. Compound `CC[N+](CC)(CC)CC(=O)Nc1c(C)cccc1C` [SPE_K56596464] has an activation at 10 µM of -0.251%. With `NC1CCN(c2c(F)cc3c(=O)c(C(=O)O)cn(C4CC4)c3c2Cl)C1` (centres unmarked) [SPE_A93964801] the activation at 10 µM was -2.8%. Compound `COc1ccccc1N1CCN(CCN(C(=O)C2CCCCC2)c2ccccn2)CC1` [SPE_K69812556] has an activation at 10 µM of -15.3%. Compound `CCCCCC(=O)O[C@]1(C(C)=O)CCC2C3CCC4=CC(=O)CC[C@]4(C)C3CC[C@@]21C` (some centres unmarked) [SPE_A29731977] has an activation at 10 µM of -5.02%. `CC(=O)NNC(=O)N1Cc2ccccc2Oc2ccc(Cl)cc21` [SPE_K52512893] showed an activation at 10 µM of -10.6%. Work on `C#CCN(C)Cc1ccccc1` [SPE_K83597974] yielded an activation at 10 µM of -2.77%. `c1ccc2oc(C3=NCCN3)cc2c1` [SPE_K22745370] was tested, and the activation at 10 µM was -9.99%. Work on `CC(=O)O[C@]1(C(C)=O)CC[C@H]2[C@@H]3C[C@H](C)C4=CC(=O)C=C[C@]4(C)[C@@]3(F)[C@@H](O)C[C@@]21C` [SPE_K02528732] yielded an activation at 10 µM of -9.55%. Compound `O=S(=O)(c1cccc2cnccc12)N1CCNCC1` [SPE_K72462751] has an activation at 10 µM of -15.9%.
